# Literature values in PMC7191262 (Molecular pharmaceutics, 2020).
# Read-outs that look alike come from different tables or passages of the source. *1 amine or outer side, *2 acyl side, *3 side chain or, on linkers, in order; H or OH if unused. Where a SMILES comes first, the peptide text is derived from it. Bridges are numbered along the chain shown (N, C = ends). [ ]: non-standard residue; d: D form. The star is where a group is joined. X1 = CN(C)c1ccc2c(c1)Oc1cc(N(C)C)ccc1C2=C1C=CC(=NC(=S)NC[C@](C)(O)C[C@H](N[*:1])C(=O)[*:2])C=C1C(=O)O; Trp(2-yl) = O=C([C@H](Cc1c([*:3])[nH]c2ccccc12)N[*:1])[*:2]; Dolaproine = CO[C@@H]([C@@H]1CCCN1)[C@@H](C)C(=O)O; Dil = CC[C@H](C)[C@H](NC)[C@@H](CC(=O)O)OC; cisHyp = O=C(O)[C@@H]1C[C@H](O)CN1; X2 = C[C@@H](N*)[C@@H](O)c1ccccc1; NMeV = CN[C@H](C(=O)O)C(C)C
# How the values were obtained:
# [1] = cargo previously delivered by pHLIP
# [2] = pHLIP with no cargo; ref [33], [36], [39]
# [3] = ref Moshnikova et al., 2013 (Ref [17])
molecule,measurement,setting,value
C[C@@H]1NC(=O)[C@H](C[C@@](C)(O)CNC(=S)N=C2C=CC(=C3c4ccc(N(C)C)cc4Oc4cc(N(C)C)ccc43)C(C(=O)O)=C2)NC(=O)[C@@H]2Cc3c([nH]c4ccccc34)SC[C@H](NC(=O)[C@@H]([C@H](C)O)NC1=O)C(=O)N1C[C@@H](O)C[C@H]1C(=O)N[C@@H](C)C(=O)N2 [Phalloidin-TRITC] (cyclo(A[dT]C[cisHyp]A[Trp(2-yl)][X1]); thioether 3-6),LogP/LogD,"[1]; ref Reshetnyak et al., 2006 (Ref [24])",−0.05
Amanitin [Amanitin (SPDP linker)],LogP/LogD,[1]; [3],−0.2
GGEQNPIYWARYADWLFTTPLLLLDLALLVDADEGTC(NPys)G [pHLIP],characteristic time for insertion,[2],~ 40 seconds
CC[C@H](C)[C@@H]([C@@H](CC(=O)N1CCC[C@H]1[C@H](OC)[C@@H](C)C(=O)N[C@H](C)[C@@H](O)c1ccccc1)OC)N(C)C(=O)[C@@H](NC(=O)[C@@H](NC)C(C)C)C(C)C [Monomethyl Auristatin E] (H-[NMeV]V[Dil][Dolaproine]-X2),LogP/LogD,"[1]; ref Burns et al., 2015 (Ref [21])",2.2
Amanitin [Amanitin (Lc-SMPT linker)],LogP/LogD,[1]; [3],0.2
CC[C@H](C)[C@@H]([C@@H](CC(=O)N1CCC[C@H]1[C@H](OC)[C@@H](C)C(=O)N[C@@H](Cc1ccccc1)C(=O)O)OC)N(C)C(=O)[C@@H](NC(=O)[C@@H](NC)C(C)C)C(C)C [Monomethyl Auristatin F] (H-[NMeV]V[Dil][Dolaproine]F-OH),LogP/LogD,"[1]; ref Burns et al., 2017 (Ref [20])",0.7
